This is an account of results in ChEMBL document CHEMBL3988442, “University of Dundee, Small-Polar-MMV Screening Library” (2021).

Where “and” joins values, the source holds several entries; their conditions need not be identical. Equal values may be shown once.

For this experiment, the target named is T1, Histidine--tRNA ligase (Leishmania infantum, UniProt A4I591).
T1 sequence (A4I591 whole entry): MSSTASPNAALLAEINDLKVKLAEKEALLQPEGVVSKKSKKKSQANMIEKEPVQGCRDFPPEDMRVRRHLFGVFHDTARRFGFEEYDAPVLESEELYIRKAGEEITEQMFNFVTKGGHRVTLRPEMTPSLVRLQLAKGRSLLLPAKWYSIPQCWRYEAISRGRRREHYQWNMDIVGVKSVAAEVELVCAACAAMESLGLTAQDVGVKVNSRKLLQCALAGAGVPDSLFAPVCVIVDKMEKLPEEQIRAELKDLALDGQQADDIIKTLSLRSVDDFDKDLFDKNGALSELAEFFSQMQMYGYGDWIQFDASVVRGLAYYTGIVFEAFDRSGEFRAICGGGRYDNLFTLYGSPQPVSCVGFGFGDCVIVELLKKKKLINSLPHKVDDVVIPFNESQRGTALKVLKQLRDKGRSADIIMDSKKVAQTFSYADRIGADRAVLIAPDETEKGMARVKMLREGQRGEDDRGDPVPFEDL
The experiment is described as follows: Leishmania infantum Histidine tRNA synthetase (LdHisRS). Format: functional.
One may read the IC50 as the concentration that gives 50% inhibition. Consider `O=C1CCC(C(=O)Nc2ccc(=O)n(Cc3ccc(Cl)c(Cl)c3)c2)N1` (stereo unspecified), for which the IC50 was 10.1 µM and 9.92 µM.

For `c1cc(-c2nnc3sc(CCN4CCCC4)nn23)ccn1`, the IC50 was greater than 100 µM.

Turning to `CCc1ocnc1C(=O)N1CCN(c2ccc3ccccc3c2)CC1`, the IC50 is 57.4 µM and 54 µM.

With `COCCn1cc(-c2cc(C(=O)N3CCCC3)c3ccccn23)nc1C`, the IC50 is greater than 100 µM.

With `CC1=C(C#N)C(=O)NC(=O)/C1=C\c1c(C)nn(-c2ccc(C)cc2)c1O`, the IC50 was 58.7 µM and 48 µM.

As to `Cc1cc(C(=O)Nc2cccn(Cc3ccc(F)cc3)c2=O)on1`, the IC50 was 12.9 µM and 11.3 µM.

As to `O=C(NCC1CC1)c1cc2c(s1)CCN2c1ncccn1`, the IC50 was 63 µM and 54 µM.

For `CC(=O)NCC1CCN(c2cc(C)nc(-c3ccncc3)n2)CC1`, the IC50 is 64 µM and > 100 µM.

On to `Cc1ncc2c(n1)CN(Cc1nnc(-c3occc3C)o1)CC2`, for which the IC50 is 64.7 µM and 82.6 µM.

For the molecule `Cn1ccnc1Sc1ccc(N)cn1`, the IC50 was greater than 100 µM.

Regarding `Cc1ccn(C)c(=O)c1NC(=O)N(C)Cc1cccc(OC(C)C)c1`, the 50% inhibitory concentration (IC50) was 18.1 µM and 21.6 µM.

With `Cc1cc(CNc2ccc3nc(C)sc3c2)no1`, the IC50 was greater than 100 µM.

Consider `O=C(CCn1ccc2cc(Br)ccc21)NCc1ccc(C(=O)O)cc1`, for which the IC50 was > 100 µM and 66.9 µM.

The molecule `Cn1nc2c(cc1=O)CN(CC(=O)Nc1cc(C(C)(C)C)no1)CC2` had an IC50 greater than 100 µM.

With `COc1ccc(CCN)cc1-c1ccc(C(N)=O)cc1`, the IC50 is 48.8 µM and 28 µM.

On to `Cc1nc(CN(C)C2CCN(Cc3ccc4ccccc4n3)C2)no1` (stereo unspecified), for which the half-maximal inhibitory concentration (IC50) is 59.9 µM and 39.8 µM.

Turning to `Cc1noc(C)c1CNc1ccc2nc(C3CC3)sc2c1`, the IC50 is greater than 100 µM.

As for `O=C1CC(c2ccc(C(=O)O)cc2)c2ncn(-c3cccc(Cl)c3)c2N1` (stereo unspecified), the IC50 was 20.7 µM and 26.5 µM.

Consider `FC(F)(F)c1ccc(-c2cc(NC3CCNCC3)nc3[nH]ccc23)nc1`, for which the IC50 was 29.3 µM and 30.2 µM.

For `OC1CCCN(Cc2c(-c3ccco3)[nH]c3ncccc23)C1` (stereo unspecified), the IC50 was 58.7 µM and 38.5 µM.

`CCn1nnc2c1C(COCC(=O)N(C)C)CN(Cc1ccco1)C2` (stereo unspecified) gave a concentration for half-maximal inhibition (IC50) greater than 100 µM.

With `Cc1c(CN2CCCCC2)c(O)n(CCO)c(=O)c1C#N`, the IC50 is 34.4 µM and 35.9 µM.

Regarding `Cc1nccn1-c1cccc(C2CCCN(C3CCCCC3)C2)n1` (stereo unspecified), the concentration for half-maximal inhibition (IC50) is 36.7 µM and 33.6 µM.

As to `Cc1ccc(-c2noc(CN3CCc4nn(C)c(=O)cc4C3)n2)cc1`, the 50% inhibitory concentration (IC50) was 29.8 µM and 30.4 µM.

`CN(C)CCn1c(=O)oc2ccc(NC(=O)N3CCCCCC3)cc21` had a half-maximal inhibitory concentration (IC50) greater than 100 µM.

Consider `COc1cccc(CN(C)C(=O)CN2CC(n3nc(C)cc3C)C2)c1`, for which the IC50 was 37.2 µM and 43.7 µM.

Take `Cc1ncc2c(n1)CN(Cc1nnc(Cc3ccccc3)o1)CC2`: the IC50 was 48.1 µM and 49.9 µM.

In turn, `COc1ccc(C2SC(C)=Nc3c2c(=O)[nH]n3C2CCCC2)cc1O` (stereo unspecified) showed an IC50 greater than 100 µM.

In turn, `CCc1cc(N2CCC(F)(F)CC2)n2nc(C)c(C)c2n1` showed an IC50 greater than 100 µM.

Take `COc1cccn(Cc2nnc(-c3cccc(F)c3)o2)c1=O`: the IC50 was 15.9 µM and 12.8 µM.

Consider `c1cncc(NCCNC2CSCCSC2)c1`, for which the IC50 is 28.7 µM and 19.6 µM.

Turning to `O=C(NCc1ccco1)[C@@H]1CC[C@@H]2[C@@H](CCN2Cc2ccc(F)cc2)O1`, the 50% inhibitory concentration (IC50) was 59.4 µM and 27.4 µM.

As for `Cc1cn2nc(N(C)C3CCCN(c4cccnn4)C3)sc2n1` (stereo unspecified), the IC50 was 29.6 µM and 43.5 µM.

As to `CC1=Nc2c(c(=O)[nH]n2C(C)C)C(c2ccc3c(c2)n(C)c(=O)n3C)S1` (stereo unspecified), the IC50 was greater than 100 µM.

With `Cc1noc(C(C)Nc2ccc(N3CCOCC3)cc2C)n1` (stereo unspecified), the IC50 is greater than 100 µM.

For `COCCN1CCCn2cnc(CNC3CCCC3)c2C1`, the IC50 was 9.13 µM and 12.8 µM.

With `CCC1=NOC(CNCc2cnc(-c3ccccc3C)s2)C1` (stereo unspecified), the IC50 was greater than 100 µM.

For `CN(C(=O)CN1CCc2nn(C)c(=O)cc2C1)c1nccs1`, the IC50 is 95.3 µM and > 100 µM.

As to `COc1ccc(-c2nc(CN3CCc4c(ncn4C)C3)cs2)cc1`, the IC50 was 69.8 µM and 87.5 µM.

Take `COc1cc(CC(=O)Nc2cccc(C(=O)N(C)C)n2)ccc1C`: the IC50 is 24.8 µM and 36.9 µM.

As to `Cc1ccc(CN2C(=O)CCC2C(=O)Nc2cnn(C)c2)o1` (stereo unspecified), the IC50 was > 100 µM and 90.1 µM.

As for `Cc1nonc1CN(C)c1nc(-c2cccnc2)nc2c1CCNC2`, the IC50 is 15.1 µM and 18.7 µM.

`COc1cccn(CC(=O)N(C)CCCOc2c(C)cccc2C)c1=O` showed an IC50 greater than 100 µM.

As for `COc1ccc(C(NCc2cccc(O)c2)C2CC2)cc1` (stereo unspecified), the IC50 was 26.9 µM and 20.1 µM.

For `CCCn1cc(NC(=O)c2cccc3cccnc23)ccc1=O`, the IC50 was 40.1 µM and 37.9 µM.

Turning to `O=C(Cc1csc(-c2ccco2)n1)N1CCN(c2cnccn2)CC1`, the IC50 is 53.2 µM and 34.3 µM.

Turning to `O=C(Nc1c(N2CCCC2)cccc1N1CCCC1)c1ccccn1`, the concentration for half-maximal inhibition (IC50) is 32.1 µM and 26.8 µM.

As to `Cn1nc2c(cc1=O)CN(c1nc3ccccc3s1)CC2`, the half-inhibitory concentration (IC50) was 72.4 µM and 80.9 µM.

Molecule `CCOc1ccc(C(=O)N(CCOC)Cc2c(C)nn(CC)c2C)o1` showed an IC50 greater than 100 µM.

Consider `Cn1cccc(NC(=O)N2CCC(CSc3ccccc3)C2)c1=O` (stereo unspecified), for which the IC50 was 15.1 µM and 14.9 µM.

`NC(=O)NC(=O)CCN1CCN(CC2CC2)c2ccccc21` showed an IC50 greater than 100 µM.

Regarding `Cc1ccc(CNC(=O)c2nc3c(o2)CN(C(=O)c2cccnc2)C3)o1`, the IC50 was 37.2 µM and 54.7 µM.

Consider `Cc1nnc(NCC(c2ccco2)N(C)C)c(C#N)c1C` (stereo unspecified), for which the half-inhibitory concentration (IC50) was 24.8 µM and 24.1 µM.

For the molecule `CC(C)c1nnc(N2C[C@@H]3CC[C@H](C2)N(Cc2ccccc2)C3)s1`, the half-inhibitory concentration (IC50) was 35.5 µM and 34.5 µM.

On to `CN(C)C(=O)CN1CCCC1c1cccc(Cc2ccccc2F)n1` (stereo unspecified), for which the IC50 is 61.1 µM and 51.2 µM.

Consider `NC(=O)c1ccc(N2CCCCC2)c(NC(=O)c2ccc(F)cc2Cl)c1`, for which the IC50 was 71.9 µM and 52.6 µM.

The molecule `Cn1ccnc1-c1cn(CCCc2csc(N)n2)nn1` had an IC50 greater than 100 µM.

Turning to `O=C(C1CCCCC1)N1C[C@@H]2CCN(c3cnccn3)C[C@@H]2C1`, the IC50 was 66.8 µM and 70.3 µM.

On to `Cn1ccnc1-c1cn(CCc2nnc(N)s2)nn1`, for which the IC50 was greater than 100 µM.

Consider `Cn1cccc(NC(=O)NCc2cccc(CO)c2)c1=O`, for which the IC50 was greater than 100 µM.

For the molecule `Cc1nnc(NCCc2coc(-c3ccccc3)n2)c(C#N)c1C`, the IC50 is 74.7 µM and 55.7 µM.

`Cc1ccccc1CC(C)(C)NC(=O)c1cccc(OCC(N)=O)c1`: the IC50 is 77.2 µM and > 100 µM.

With `Cc1nccc(-c2cccc(NCC(=O)N3CCc4sccc4C3)c2)n1`, the IC50 was 73.8 µM and 68.4 µM.

`c1cc(-c2ccc3c(c2)CCC32CCN(c3nncs3)CC2)co1`: the half-inhibitory concentration (IC50) is 12.5 µM and 10.1 µM.

In the case of `NCc1ccnc(Oc2ccccc2)c1`, the IC50 is 39.2 µM and 30.9 µM.

For the molecule `O=C(c1cc(=O)n(-c2ccccc2)[nH]1)N1CCCC(c2ccn[nH]2)C1` (stereo unspecified), the IC50 is 49.3 µM and 44.5 µM.

Take `COc1ccc(Oc2nccc3occc23)cc1CN1CCCC1`: the IC50 was 66.1 µM and 62.2 µM.

For the molecule `Cc1cc(N2CCC(Cc3ccccc3)CC2)nc(-c2ccncc2)n1`, the IC50 was 25 µM and 18.4 µM.

`CC(C)c1cc(NC(=O)CN2CCc3nn(C)c(=O)cc3C2)on1` showed an IC50 greater than 100 µM.

Turning to `CC(=O)N(Cc1noc(C)n1)C1CCN(Cc2cccc(C#N)c2)C1` (stereo unspecified), the IC50 was greater than 100 µM.

Take `Cn1nc2c(cc1=O)CN(Cc1nc(-c3ccco3)no1)CC2`: the IC50 is 11.8 µM and 14 µM.

`Cn1cc(NS(=O)(=O)c2ccc(F)c(F)c2)ccc1=O` had an IC50 greater than 100 µM.

In the case of `O=C(c1ccc2[nH]ccc2c1)N1CCn2cnc(COCC3CC3)c2C1`, the IC50 was 38.4 µM and 25.7 µM.

For the molecule `COc1ccc(C(=O)N2CCN(c3cc(CCN)nc(C)n3)CC2)cc1`, the IC50 is 49.3 µM and 51.2 µM.

With `CC(C)NC(=O)C1Cc2nc(-c3ccsc3)sc2N1CC1CC1` (stereo unspecified), the IC50 is 33.6 µM and 37.3 µM.

Take `Cc1cc(NC(=O)CN2CCc3nn(C)c(=O)cc3C2)no1`: the IC50 was greater than 100 µM.
